The values that follow come from patent publication US9994594B2, “Inhibitors of arginase and their therapeutic applications” (MARS, INCORPORATED, priority 2010, dated 2018).

pIC50: −log10 of the molar value. Where a name gives a salt, the structure may show the parent alone. Read-outs that look alike come from different tables or passages of the source.

For assay [1], the target named is T1, arginase II (ARG II) (Homo sapiens, UniProt P78540).
T1 sequence (P78540 23-354): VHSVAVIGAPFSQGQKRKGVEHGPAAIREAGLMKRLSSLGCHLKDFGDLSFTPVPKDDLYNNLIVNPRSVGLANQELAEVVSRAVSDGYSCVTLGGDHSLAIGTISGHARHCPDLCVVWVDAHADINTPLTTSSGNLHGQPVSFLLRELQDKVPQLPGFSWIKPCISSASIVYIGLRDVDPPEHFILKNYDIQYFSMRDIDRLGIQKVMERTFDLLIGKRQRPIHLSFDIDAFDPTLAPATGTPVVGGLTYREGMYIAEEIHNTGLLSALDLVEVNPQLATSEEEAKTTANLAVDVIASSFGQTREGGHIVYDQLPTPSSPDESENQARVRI
Put plainly: Inhibition of arginase II, spectrophotometric urea assay at 530 nm. In kind it is biochemical. Here is the method:
(§1) The assay established the concentration of inhibitor that is required to reduce arginase activity by 50% (IC50).
(§2) Inhibition of arginase I (ARG I) and arginase II (ARG II) by Formula I and Formula II compounds is followed spectrophotometrically at 530 nm. The compound to be tested is dissolved in DMSO at an initial concentration 50-fold greater than its final concentration in the cuvette. 10 μl of the stock solution is diluted in 90 μl of the assay buffer that comprises 0.1M sodium phosphate buffer containing 130 mM NaCl, pH 7.4, to which is added ovalbumin (OVA) at a concentration of 1 mg/ml. Solutions of arginase I and II are prepared in 100 mM sodium phosphate buffer, pH 7.4 containing 1 mg/ml of OVA to give an arginase stock solution at a final concentration of 100 ng/ml.
(§3) To each well of a 96-well microtiter plate is add 40 μl of enzyme, 10 μl of an inventive compound and 10 μl of enzyme substrate (L-arginine+manganese sulfate). For wells that are used as positive controls, only the enzyme and its substrate are added, while wells used as negative controls contain only manganese sulfate.
(§4) After incubating the microtiter plate at 37° C. for 60 minutes, 150 μl of a urea reagent obtained by combining equal proportions (1:1) of reagents A and B is added to each well of the microtiter plate to stop the reaction. The urea reagent is made just before use by combining Reagent A (10 mM o-phthaldialdehyde, and 0.4% polyoxyethylene (23) lauryl ether (w/v) in 1.8 M sulfuric acid) with Reagent B (1.3 mM primaquine diphosphate, 0.4% polyoxyethylene (23) lauryl ether (w/v), 130 mM boric acid in 3.6 M sulfuric acid). After quenching the reaction mixture, the microtiter plate is allowed to stand for an additional 10 minutes at room temperature to allow color development. The inhibition of arginase is computed by measuring the optical density (OD) of the reaction mixture at 530 nm and normalizing the OD value to percent inhibition observed in the control. The normalized OD is then used to generate a dose-response curve by plotting the normalized OD values against log [concentration] and using regression analysis to compute the IC50 values.

In assay [2] the target is T2, human arginase I (ARG I) (Homo sapiens, UniProt P05089).
T2 sequence (P05089 1-322): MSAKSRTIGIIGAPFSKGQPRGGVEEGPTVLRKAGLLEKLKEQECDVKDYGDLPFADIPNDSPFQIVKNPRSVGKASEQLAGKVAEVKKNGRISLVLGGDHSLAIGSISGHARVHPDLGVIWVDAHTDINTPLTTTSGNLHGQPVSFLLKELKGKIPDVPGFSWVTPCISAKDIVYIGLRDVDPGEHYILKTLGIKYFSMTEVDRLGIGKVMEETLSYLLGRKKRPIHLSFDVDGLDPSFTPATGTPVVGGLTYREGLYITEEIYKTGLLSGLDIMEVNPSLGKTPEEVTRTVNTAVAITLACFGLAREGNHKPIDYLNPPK
Put plainly: Inhibition of arginase I, spectrophotometric urea assay at 530 nm. The conditions noted are these: read-out: Potency (ARG I). It counts as biochemical. Here is the method: as §1, §2, §3, §4

The mark [3] stands for this setting: Formula II compounds, Table 2-A, read-out: Potency (ARG).
Setting [4] is: Formula II compounds, Table 2-A.
The mark [5] stands for this setting: Formula I compounds, Table 2, read-out: Potency (ARG II).

With `Cc1cc(C(F)(F)F)cc(N2CCC(C(N)(CCCCB(O)O)C(=O)O)CC2)n1` (stereo not shown) [7-A, 2-amino-6-borono-2-(1-(6-methyl-4-(trifluoromethyl)pyridin-2-yl)piperidin-4-yl)hexanoic acid], the pIC50 in assay [1] (setting [3]) is 5.30 to 5.70; in assay [2] (setting [4]), 5.70 to 6.00.

On to `NC(CCCCB(O)O)(CCOc1ccc(Cl)cc1)C(=O)O` (stereo not shown) [compound 92, 2-amino-6-borono-2-(2-(4-chlorophenoxy)ethyl)hexanoic acid hydrochloride], for which the pIC50 was under 5.30 in assay [1] (setting [5]) and under 5.30 in assay [2] (Formula I compounds, Table 2).

In the case of `CCN1Cc2ccccc2CC1CCC(N)(CCCCB(O)O)C(=O)O` (stereo not shown) [compound 130, 2-amino-6-borono-2-(2-(2-ethyl-1,2,3,4-tetrahydroisoquinolin-3-yl)ethyl)hexanoic acid dihydrochloride], the pIC50 in assay [1] (setting [5]) was 6.00 to 6.60; in assay [2] (Formula I compounds, Table 2) it was 6.60 to 10.00.

On to `NC(CCCCB(O)O)(CCOc1ccc(Cl)cc1Cl)C(=O)O` (stereo not shown) [compound 94, 2-Amino-6-borono-2-[2-(2,4-dichlorophenoxy)-ethyl]-hexanoic acid hydrochloride], for which the pIC50 in assay [1] (setting [5]) is under 5.30; in assay [2] (Formula I compounds, Table 2), under 5.30.

As to `NC(CCCCB(O)O)(CCC1Cc2ccccc2CN1Cc1ccc(Cl)cc1)C(=O)O` (stereo not shown) [compound 132, 2-amino-6-borono-2-(2-(2-(4-chlorobenzyl)-1,2,3,4-tetrahydroisoquinolin-3-yl)ethyl)hexanoic acid dihydrochloride], the pIC50 in assay [1] (setting [5]) is 6.00 to 6.60; in assay [2] (Formula I compounds, Table 2), 6.60 to 10.00.

On to `NC(CCCCB(O)O)(C(=O)O)C1CCN(Cc2cccc3cccnc23)CC1` (stereo not shown) [Example 56-A, 2-amino-6-borono-2-(1-(quinolin-8-ylmethyl)piperidin-4-yl)hexanoic acid dihydrochloride], for which the values for the pIC50 in assay [1] (setting [3]) and in assay [2] (setting [4]) were 6.00 to 6.60 and 6.60 to 10.00, respectively.

For `NC(CCCCB(O)O)(C(=O)O)C1CCN(c2ccc(C(F)(F)F)cn2)CC1` (stereo not shown) [1-A, 2-amino-6-borono-2-(5′Trifluoromethyl-3,4,5,6-tetrahydro-2H-[1,2′]bipyridinyl-4-yl)-hexanoic acid hydrochloride], the pIC50 in assay [1] (setting [3]) is 5.70 to 6.00; in assay [2] (setting [4]), 6.00 to 6.60.

In the case of `NC(CCCCB(O)O)(C(=O)O)C1CCN(Cc2cccc(Cn3cccn3)c2)CC1` (stereo not shown) [Example 65-A, 2-(1-(3-((1H-pyrazol-1-yl)methyl)benzyl)piperidin-4-yl)-2-amino-6-boronohexanoic acid dihydrochloride], the pIC50 in assay [1] (setting [3]) and in assay [2] (setting [4]) was 6.60 to 10.00 throughout.

For `NC(CCCCB(O)O)(CCN1CCC(CO)CC1)C(=O)O` (stereo not shown) [compound 22, 2-amino-6-borono-2-(2-(4-(hydroxymethyl)piperidin-1-yl)ethyl)hexanoic acid], the pIC50 in assay [1] (setting [5]) is 6.00 to 6.60; in assay [2] (Formula I compounds, Table 2) it was 6.00 to 6.60.

Regarding `NC(CCCCB(O)O)(CCN1CCC[C@@H](C(=O)O)C1)C(=O)O` (stereo partly drawn) [compound 53, (3R)-1-(3-amino-7-borono-3-carboxyheptyl)piperidine-3-carboxylic acid], the pIC50 was 5.30 to 5.70 in assay [1] (setting [5]) and 5.30 to 5.70 in assay [2] (Formula I compounds, Table 2).

Turning to `NC(CCCCB(O)O)(CCN1CCC(O)(Cc2ccccc2)CC1)C(=O)O` (stereo not shown) [compound 34, 2-amino-2-(2-(4-benzyl-4-hydroxypiperidin-1-yl)ethyl)-6-boronohexanoic acid dihydrochloride], the pIC50 in assay [1] (setting [5]) was 5.70 to 6.00; in assay [2] (Formula I compounds, Table 2), 6.00 to 6.60.

Consider `NC(CCCCB(O)O)(CCc1ccccn1)C(=O)O` (stereo not shown) [compound 116, 2-amino-6-borono-2-(2-(pyridin-2-yl)ethyl)hexanoic acid dihydrochloride], for which the pIC50 is 5.30 to 5.70 in assay [1] (setting [5]) and 5.30 to 5.70 in assay [2] (Formula I compounds, Table 2).

Consider `NC(CCCCB(O)O)(C(=O)O)C1CCN(C(=S)Nc2ccc(Cl)cc2)CC1` (stereo not shown) [34-A, 2-amino-6-borono-2-(1-{[(4-chlorophenyl)amino]carbonothioyl}piperidin-4-yl)hexanoic acid hydrochloride], for which the pIC50 in assay [1] (setting [3]) and in assay [2] (setting [4]) was 6.00 to 6.60 in each case.

As for `NC(CCCCB(O)O)(C(=O)O)[C@H]1C[C@H](NCc2ccccc2)C1` (stereo partly drawn) [Example 75-A, trans-2-amino-2-(3-(benzylamino)cyclobutyl)-6-boronohexanoic acid dihydrochloride], the figures for the pIC50 in assay [1] (setting [3]) and in assay [2] (setting [4]) were 6.00 to 6.60 and 6.60 to 10.00, respectively.

As to `Cc1cc2c(F)ccc(C)c2nc1N1CCC(C(N)(CCCCB(O)O)C(=O)O)CC1` (stereo not shown) [5-A, 2-amino-6-borono-2-(1-(5-fluoro-3,8-dimethylquinolin-2-yl)piperidin-4-yl)hexanoic acid dihydrochloride], the results for the pIC50 in assay [1] (setting [3]) and in assay [2] (setting [4]) were 6.00 to 6.60 and 5.70 to 6.00, respectively.

In the case of `NC(CCCCB(O)O)(CCNCCCc1ccc(Cl)cc1Cl)C(=O)O` (stereo not shown) [compound 66, 2-amino-6-borono-2-(2-(3-(2,4-dichlorophenyl)propylamino)ethyl)hexanoic acid dihydrochloride], the pIC50 in assay [1] (setting [5]) was 6.60 to 10.00; in assay [2] (Formula I compounds, Table 2), 6.60 to 10.00.

On to `NC(CCCCB(O)O)(CCNC1Cc2ccccc2C1)C(=O)O` (stereo not shown) [compound 58, 2-amino-6-borono-2-(2-(2,3-dihydro-1H-inden-2-ylamino)ethyl)hexanoic acid dihydrochloride], for which the pIC50 in assay [1] (setting [5]) is 6.60 to 10.00; in assay [2] (Formula I compounds, Table 2), 6.60 to 10.00.

With `CCCCNCC(N)(CCCCB(O)O)C(=O)O` (stereo not shown) [compound 86, 2-amino-6-borono-2-((butylamino)methyl)hexanoic acid dihydrochloride], the pIC50 in assay [1] (setting [5]) is 5.30 to 5.70; in assay [2] (Formula I compounds, Table 2), 5.30 to 5.70.

Regarding `NC(CCCCB(O)O)(CCN1CCC[C@@H]1C(F)(F)F)C(=O)O` (stereo partly drawn) [compound 46, 2-amino-6-borono-2-(2-((R)-2-(trifluoromethyl)pyrrolidin-1-yl)ethyl)hexanoic acid dihydrochloride], the pIC50 in assay [1] (setting [5]) is under 5.30; in assay [2] (Formula I compounds, Table 2) it was under 5.30.

As to `NC(CCCCB(O)O)(C(=O)O)C1CCN(C2CCCCC2)CC1` (stereo not shown) [23-A, 2-amino-6-borono-2-(1-cyclohexylpiperidin-4-yl)hexanoic acid dihydrochloride], the pIC50 in assay [1] (setting [3]) and in assay [2] (setting [4]) was 6.00 to 6.60 in each case.

On to `COC1CCN(CCC(N)(CCCCB(O)O)C(=O)O)CC1` (stereo not shown) [compound 41, 2-amino-6-borono-2-(2-(4-methoxypiperidin-1-yl)ethyl)hexanoic acid dihydrochloride], for which the pIC50 in assay [1] (setting [5]) is 5.30 to 5.70; in assay [2] (Formula I compounds, Table 2), 5.70 to 6.00.

Turning to `NC(CCCCB(O)O)(C(=O)O)C1CNCCO1` (stereo not shown) [19-A, 2-amino-6-borono-2-(morpholin-2-yl)hexanoic acid dihydrochloride], the pIC50 in assay [1] (setting [3]) and in assay [2] (setting [4]) was 5.30 to 5.70 throughout.

As for `CNC(CCCCB(O)O)(CCCN1CCCC1)C(=O)O` (stereo not shown) [compound 137, 6-borono-2-(methylamino)-2-(3-(pyrrolidin-1-yl)propyl)hexanoic acid dihydrochloride], the pIC50 in assay [1] (setting [5]) is 6.60 to 10.00; in assay [2] (Formula I compounds, Table 2), 6.60 to 10.00.

For the compound `O=C(O)C(CCCCB(O)O)NCc1ccc(Cl)cc1` (stereo not shown) [compound 145, 6-borono-2-(4-chlorobenzylamino)hexanoic acid hydrochloride], the pIC50 in assay [1] (setting [5]) is 5.70 to 6.00; in assay [2] (Formula I compounds, Table 2), 5.70 to 6.00.

On to `NC(CCCCB(O)O)(C(=O)O)C1CCN(Cc2ccccc2)CC1` (stereo not shown) [Example 87-A, 2-amino-2-(1-benzylpiperidin-4-yl)-6-boronohexanoic acid dihydrochloride], for which the pIC50 in assay [1] (setting [3]) and in assay [2] (setting [4]) was 6.60 to 10.00 each time.

Regarding `CC(=O)N1CCC(C(N)(CCCCB(O)O)C(=O)O)CC1` (stereo not shown) [27-A, 2-amino-6-borono-2-[1-acetylpiperidin-4-yl]hexanoic acid hydrochloride], the pIC50 in assay [1] (setting [3]) and in assay [2] (setting [4]) was 5.30 to 5.70 in each case.
